Data on 33 compounds can be found in US10508077B2 (FORMA Therapeutics, Inc., priority 2015, dated 2019).

The target in this test is T1, Full length human recombinant HDAC8 protein (Homo sapiens, UniProt Q9BY41).
T1 construct: Full length human recombinant HDAC8 protein was expressed in baculoviral system; made in house
T1 sequence (Q9BY41 1-377): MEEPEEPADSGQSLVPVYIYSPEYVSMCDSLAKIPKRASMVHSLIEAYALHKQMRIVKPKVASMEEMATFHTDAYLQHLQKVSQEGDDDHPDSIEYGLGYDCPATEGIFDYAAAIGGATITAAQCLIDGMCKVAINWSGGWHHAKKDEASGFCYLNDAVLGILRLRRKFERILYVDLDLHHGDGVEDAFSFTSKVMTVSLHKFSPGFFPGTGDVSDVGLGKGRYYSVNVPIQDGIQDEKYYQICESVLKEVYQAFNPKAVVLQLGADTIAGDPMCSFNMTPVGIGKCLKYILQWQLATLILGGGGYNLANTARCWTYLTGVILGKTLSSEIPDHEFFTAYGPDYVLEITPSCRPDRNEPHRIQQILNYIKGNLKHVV
Kind of test: In vitro histone deacetylase assay: enzymatic HDAC8 assay, electrophoretic mobility shift. As to conditions: substrate RHKK(Ac)-NH2, 1 nM enzyme, compounds listed under IC50 range headings. In kind it is biochemical. As for the experimental part:
The enzymatic HDAC8 assay was performed using electrophoretic mobility shift assay. Full length human recombinant HDAC8 protein was expressed in baculoviral system and purified by affinity chromatography. The enzymatic reactions were assembled in 384 well plates in a total volume of 25 μL in a reaction buffer composing: 100 mM HEPES, pH7.5, 25 mM KC, 0.1% bovine serum albumin, 0.01% Triton X-100, 1% DMSO (from compounds) 2 μM of the fluorescently labeled peptide substrate and enzyme. The enzyme was added at a final concentration of 1 nM. The peptide substrate RHKK(Ac)-NH2 was used. The compounds were tested at 12 concentrations spaced by 3× dilution intervals. Negative control samples (0%-inhibition in the absence of inhibitor) and positive control samples (100%-inhibition) were assembled in replicates of four in each assay plate. The reactions were incubated at 25° C. and quenched by the addition of 45 μL of termination buffer (100 mM HEPES, pH 7.5, 0.01% Triton X-100, 0.05% SDS).
The terminated assay plates were analyzed on LabChip® 3000 microfluidic electrophoresis instrument (Perkin Elmer/Caliper Life Sciences). The fluorescence intensity of the electrophoretically separated de-acetylated product and substrate peptide was measured. Activity in each sample was determined as the product to sum ratio (PSR): P/(S+P), where P is the peak height of the product peptide and S is the peak height of the substrate peptide. Percent inhibition (Pinh) is determined using the following equation: Pinh=(PSR0%−PSRinh)/(PSR0%−PSR100%)*100, where PSRinh is the product sum ratio in the presence of inhibitor, PSR0% is the average product sum ration in the absence of inhibitor and PSR 100% is the average product sum ratio in 100%-inhibition control samples. The IC50 values of inhibitors were determined by fitting the %-inhibition curves with 4 parameter dose-response model using XLfit 4 software. Ranges of IC50 values for compounds of the invention are disclosed in Table 26.

What is called IC50 is the point on the concentration scale where inhibition reaches its midpoint. Turning to `CC(Cc1ccccc1)C(=O)N1CCN(c2ccccc2/C=C/C(=O)NO)CC1` (stereo not drawn) [Example I-297, (E)-N-hydroxy-3-(2-(4-(2-methyl-3-phenylpropanoyl)piperazin-1-yl)phenyl)acrylamide], the IC50 is < 1000 nM.

Regarding `O=C(/C=C/c1ccccc1N1CCC(NC(=O)c2ccc3cccnc3n2)CC1)NO` [Example I-11, (E)-N-(1-(2-(3-(hydroxyamino)-3-oxoprop-1-en-1-yl)phenyl)piperidin-4-yl)-1,8-naphthyridine-2-carboxamide], the IC50 was in the range of 1000 to 10000 nM. Next, `O=C(/C=C/c1ccccc1NCc1cc2cccnc2[nH]1)NO` [Example I-102, (E)-3-(2-(((1H-pyrrolo[2,3-b]pyridin-2-yl)methyl)amino)phenyl)-N-hydroxyacrylamide]: < 1000 nM. As for `O=C(/C=C/c1ccccc1N1CCC(NC(=O)CSc2ccccc2)CC1)NO` [Example I-152, (E)-N-hydroxy-3-(2-(4-(2-(phenylthio)acetamido)piperidin-1-yl)phenyl)acrylamide], the IC50 is < 1000 nM. Under `COCCn1c(CNc2ccccc2/C=C/C(=O)NO)nc2ccccc21` [Example I-2, (E)-N-hydroxy-3-(2-(((1-(2-methoxyethyl)-1H-benzo[d]imidazol-2-yl)methyl)amino)phenyl)acrylamide] stands 1000 to 10000 nM; under `O=C(/C=C/c1ccccc1N1CCC(NC(=O)C2Cc3ccccc3C2)CC1)NO` [Example I-140, (E)-N-(1-(2-(3-(hydroxyamino)-3-oxoprop-1-en-1-yl)phenyl)piperidin-4-yl)-2,3-dihydro-1H-indene-2-carboxamide], < 1000 nM; under `O=C(/C=C/c1ccccc1N1CCC(NS(=O)(=O)Cc2ccc(F)cc2)CC1)NO` [Example I-228, (E)-3-(2-(4-(((4-fluorophenyl)methyl)sul-fonamido)piperidin-1-yl)phenyl)-N-hydroxyacrylamide], < 1000 nM.

`O=C(/C=C/c1ccccc1NCc1ccc(-c2ccccc2)c(C(F)(F)F)c1)NO` [Example I-120, (E)-N-hydroxy-3-(2-(((2-(trifluoromethyl)-[1,1′-biphenyl]-4-yl)methyl)amino)phenyl)acrylamide]: the IC50 is < 1000 nM. On to `O=C(/C=C/c1ccccc1N1CCC(NS(=O)(=O)Cc2ccc(Cl)cc2F)CC1)NO` [Example I-239, (E)-3-(2-(4-(((4-chloro-2-fluorophenyl)methyl)sul-fonamido)piperidin-1-yl)phenyl)-N-hydroxyacrylamide], for which the IC50 is < 1000 nM. Next, `O=C(/C=C/c1ccccc1N1CCC(NC(=O)CN2CCS(=O)(=O)CC2)CC1)NO` [Example I-138, (E)-3-(2-(4-(2-(1,1-dioxidothiomorpholino)acetamido)piperidin-1-yl)phenyl)-N-hydroxyacrylamide]: < 1000 nM. Under `O=C(/C=C/c1ccccc1C(=O)Nc1ccc(-c2ccccc2)c(C(F)(F)F)c1)NO` [II-1] stands 1000 to 10000 nM. As to `O=C(/C=C/c1ccccc1N1CCC2(CCNCC2)CC1)NO` [Example I-52, (E)-3-(2-(3,9-diazaspiro[5.5]undecan-3-yl)phenyl)-N-hydroxyacrylamide 2,2,2-trifluoroacetate], the IC50 was < 1000 nM. Regarding `O=C(/C=C/c1ccccc1N1CCC(NS(=O)(=O)C2CCCC2)CC1)NO` [Example I-27, (E)-3-(2-(4-(cyclopentanesulfonamido)piperidin-1-yl)phenyl)-N-hydroxyacrylamide], the IC50 fell in the range of 1000 to 10000 nM. Take `Cc1cc(C(=O)Nc2ccccc2/C=C/C(=O)NO)ccc1-n1cnnn1` [Example I-286, (E)-N-(2-(3-(hydroxyamino)-3-oxoprop-1-en-1-yl)phenyl)-3-methyl-4-(1H-tetrazol-1-yl)benzamide]: the IC50 is < 1000 nM. Take `O=C(/C=C/c1ccccc1NCc1nc2ccccc2[nH]1)NO` [Example I-39, (E)-3-(2-(((1H-benzo[d]imidazol-2-yl)methyl)amino)phenyl)-N-hydroxyacrylamide]: the IC50 was < 1000 nM.

As for `COc1ccc(OC)c(S(=O)(=O)NC2CCN(c3ccccc3/C=C/C(=O)NO)CC2)c1` [Example I-242, (E)-3-(2-(4-((2,5-dimethoxyphenyl)sulfon-amido)piperidin-1-yl)phenyl)-N-hydroxyacrylamide], the IC50 was < 1000 nM. For the compound `CC(C(=O)N1CCN(c2ccccc2/C=C/C(=O)NO)CC1)c1ccc(Cl)cc1` (stereo not drawn) [Example I-291, (E)-3-(2-(4-(2-(4-chlorophenyl)propanoyl)piperazin-1-yl)phenyl)-N-hydroxyacrylamide], the IC50 is < 1000 nM. Next, `COc1ccc(C(=O)N2CCN(c3ccccc3/C=C/C(=O)NO)CC2)cc1F` [Example I-213]: < 1000 nM. Consider `O=C(/C=C/c1ccccc1N1CCN(C(=O)c2ccc(C(F)(F)F)cc2)CC1=O)NO` [Example I-532, (E)-N-hydroxy-3-(2-(2-oxo-4-(4-(trifluoromethyl)benzoyl)piperazin-1-yl)phenyl)acrylamide], for which the IC50 is < 1000 nM. Under `O=C(/C=C/c1ccccc1N1CCN(C(=O)c2cc3ccccn3n2)CC1)NO` [Example I-22, (E)-N-hydroxy-3-(2-(4-(pyrazolo[1,5-a]pyridine-2-carbonyl)piperazin-1-yl)phenyl)acrylamide] stands 1000 to 10000 nM.

Turning to `O=C(/C=C/c1ccccc1C(=O)NCc1ccc(-c2ccccc2)cc1)NO` [II-7, (E)-N-([1,1′-biphenyl]-4-ylmethyl)-2-(3-(hydroxyamino)-3-oxoprop-1-en-1-yl)benzamide], the IC50 fell in the range of 1000 to 10000 nM. Next, `O=C(/C=C/c1ccccc1N1CCC2(CCCNC2)CC1)NO` [Example I-110, (E)-3-(2-(2,9-diazaspiro[5.5]undecan-9-yl)phenyl)-N-hydroxyacrylamide 2,2,2-trifluoroacetate]: < 1000 nM. Under `O=C(/C=C/c1ccccc1N1CCN(C(=O)C2(C(F)(F)F)CC2)CC1)NO` [Example I-322, (E)-N-hydroxy-3-(2-(4-(1-(trifluoromethyl)cyclopro-pane-1-carbonyl)piperazin-1-yl)phenyl)acrylamide] stands < 1000 nM; under `Cc1noc(C)c1S(=O)(=O)NC1CCN(c2ccccc2/C=C/C(=O)NO)CC1` [Example I-220, (E)-3-(2-(4-((3,5-dimethylisoxazole)-4-sulfonamido)piperidin-1-yl)phenyl)-N-hydroxyacrylamide], < 1000 nM. In the case of `CCCCc1ccc(NC(=O)c2ccccc2/C=C/C(=O)NO)cc1` [II-14, (E)-N-(4-butylphenyl)-2-(3-(hydroxyamino)-3-oxoprop-1-en-1-yl)benzamide], the IC50 was < 1000 nM. In the case of `O=C(/C=C/c1ccccc1N1CCN(C(=O)Cc2ccc(Cl)cc2)CC1)NO` [Example I-210, (E)-3-(2-(4-(2-(4-chlorophenyl)acetyl)piper-azin-1-yl)phenyl)-N-hydroxyacrylamide], the IC50 was < 1000 nM.

On to `COc1cc(-c2ccccc2)sc1C(=O)Nc1ccccc1/C=C/C(=O)NO` [Example I-284, (E)-N-(2-(3-(hydroxyamino)-3-oxoprop-1-en-1-yl)phenyl)-3-methoxy-5-phenylthiophene-2-carboxamide], for which the IC50 is < 1000 nM. Next, `O=C(/C=C/c1ccccc1NC(=O)c1ccc(Cn2nnc3ccccc32)cc1)NO` [Example I-287, (E)-4-((1H-benzo[d][1,2,3]triazol-1-yl)methyl)-N-(2-(3-(hydroxyamino)-3-oxoprop-1-en-1-yl)phenyl)benzamide]: < 1000 nM. Next, `O=C(/C=C/c1ccccc1N1CCC(NC(=O)c2ccc3[nH]nnc3c2)CC1)NO` [Example I-161]: < 1000 nM. Regarding `O=C(/C=C/c1ccccc1S(=O)(=O)C1CCN(Cc2ccccc2)CC1)NO` [II-30, (E)-3-(2-((1-benzylpiperidin-4-yl)sulfonyl)phenyl)-N-hydroxyacrylamide], the IC50 is < 1000 nM. Next, `O=C(/C=C/c1ccccc1N1CCN(C(=O)Cc2cccnc2)CC1)NO` [Example I-295, (E)-N-hydroxy-3-(2-(4-(2-(pyridin-3-yl)acetyl)piperazin-1-yl)phenyl)acrylamide]: < 1000 nM; `O=C(/C=C/c1ccccc1N1CCN(C(=O)C2CCC(F)(F)CC2)CC1)NO` [Example I-23]: 1000 to 10000 nM. Regarding `Cc1ccc(Sc2ncccc2C(=O)Nc2ccccc2/C=C/C(=O)NO)cc1` [Example I-280, (E)-N-(2-(3-(hydroxyamino)-3-oxoprop-1-en-1-yl)phenyl)-2-(p-tolylthio)nicotinamide], the IC50 is < 1000 nM.
